Here are results for nine molecules from patent US20140363841A1, “INDUCED PLURIPOTENT STEM CELL (IPSC)-DERIVED CARDIOMYOCYTE-LIKE CELLS AND USES THEREOF” (priority 2012, published 2014).

Data set [1] relates to hiPSC-CMs (human induced pluripotent stem cell-derived cardiomyocyte-like cells, lines C2 and C3). In words: Multielectrode array (MEA) field potential recording: cFPD and FPmin. The format is cell-based. The conditions noted are these: for cFPD (normalized) after reversal of isoprenaline-reduced cFPD: beta-blocker applied after isoprenaline (0.1 μM); for change in FPmin (in words) / changes in cFPD (in words): drug alone; for changes in cFPD (in words): CMs from both cell lines; for FPmin (normalized values): baseline 100±0; for cFPD effect relative to human ETPC unbound range (in words): non-linear regression of normalized cFPD, dose range 10^−9-10^−4 M. The procedure: Human iPSC lines [MSnviPSNF2 (C2), MSnviPSNF3 (C3)] were maintained on 1% matrigel (BD Biosciences, CA, USA) and grown in chemically defined mTeSR1 medium (Stem Cell Technologies, VA, Canada). Care was taken to manually remove the differentiated areas (<10%) with the help of a scraper before passaging. Cells were washed with DMEM-F12 (Invitrogen, USA) and incubated with 1 mg/ml dispase (Sigma, USA) for 5-7 minutes. Cells were then washed with DMEM-F12 and colonies scrapped from the culture dishes. Controlled tituration of the colonies was performed to get small clumps of approximately 50-70 μm in size for replating on new matrigel coated dishes (1:6 split ratio).
Subsequently, EBs were plated on 0.1% gelatin coated dishes in EB medium without SB203580. […] Beating areas were manually cut after day 21 of differentiation and utilized for various experiments.
(§1) To characterize the electrophysiological properties of the hiPSC-CMs, a multielectrode array (MEA) recording system (Multichannel Systems, Reutlingen, Germany) was used. The contracting areas were microdissected and plated on gelatin coated MEA plates. The MEA system allows simultaneous recordings from 60 titanium nitride electrodes (30 μm) at high spatial (200 μm) and temporal (15 kHz) resolutions. To assess the effects of different drugs on the electrophysiological properties, the stock drugs in DMSO were diluted in medium (2 mL). All drugs utilized in the study were purchased from Sigma, USA. Extracellular recording were performed for 180-300 seconds at baseline and at 5 minutes after drug application. The local activation maps were generated using Cardio2D software (Multichannel Systems, Reutlingen, Germany). The recorded electrograms were also used to determine the local field potential (FP) duration (FPD).
Comparisons at each time point were conducted using analysis of variance (ANOVA), and all data are presented as mean values±s.e.m of three independent experiments. Differences were considered statistically significant at p≦0.05. Corrected field potential duration curves were fitted using the one phase decay algorithm from GraphPad Prism software.

Data set [2] has as its system hiPSC-CMs. The settings on record: for modulation of beating rates (in words): beta-blocker applied alone; for effect on isoprenaline-induced increase in beating frequencies (in words): clusters initially treated with isoprenaline.
Text: as §1
The different agents were also evaluated to determine if these agents (drugs) could induce arrhythmia in hiPSC-CMs at supraphysiological ranges.

Data set [3] deals with contracting EBs (iPSC-derived cardiomyocyte-like cells). In words: Beat rate variability analysis in beta-adrenergic response (power spectral density of RR intervals). The class given is cell-based, human. The settings on record: 0.1 μM isoprenaline, then 1 μM beta-blocker where stated. From the text: To study the autonomic modulations of beating period of the contracting EBs, power spectral density of beat-to-beat or RR intervals based on 5-min recordings from the MEA were used to derive the Total Power (TP), very low frequency power (VLF), low frequency power (LF), high frequency power (HF), LF (normalized unit), HF (normalized unit) and ratio of LF/HF of spectral of beat rate variability using software such as HRV Toolkit (physionet.org/tutorials/hrv-toolkit/, Harvard Medical School) or LabVIEW Biomedical Toolkit for heart rate variability. […] The data were obtained using iPSC-derived cardiomyocyte-like cells from an individual with genetic pre-disposition to cardiac arrhythmia (n=4; referring to 4 regional areas within an EB), and iPSC-derived cardiomyocyte-like cells from a normal individual without genetic pre-disposition to cardiac arrhythmia (n=10).

For data set [4], the system named is hiPSC-CMs. In words: MEA conduction velocity. The class given is cell-based, human.
Text: as §1

The conditions of data set [5]: human, unbound therapeutic plasma concentration; cited from earlier work.
The mark [6] stands for this setting: EBs from individual with genetic disposition to arrhythmia (n=4).
Setting [7] is: EBs from normal healthy donor (n=10).
[8] abbreviates: over all three tested doses (range 0.01-10 μM).

Values joined by “and” are separate entries in the source; they are usually repeats but may differ in a detail not shown here. Equal values may be shown once. Read-outs that look alike come from different tables or passages of the source.

For `CC(C)NCC(O)COc1cccc2ccccc12` (centres unmarked) [propranolol, Propranolol], the “cFPD (normalized) after reversal of isoprenaline-reduced cFPD” value in data set [1] (n=3) worked out at 98.3±4.5%. In data set [1], the “change in FPmin (in words)” value is listed as “did not have any significant effects” and the “changes in cFPD (in words)” value is recorded as “did not have any significant effects”. Further, in the data set on hiPSC-CMs [2], the “modulation of beating rates (in words)” value is recorded as “not apparent” and the “effect on isoprenaline-induced increase in beating frequencies (in words)” value is given as “reversed”. For the same molecule, the “effect on beating frequencies (in words)” value with hiPSC-CMs [2] (higher doses, 10-100 μM) is “did not show any major effect”.

In the case of `CC(C)NCC(O)c1ccc(O)c(O)c1` (centres unmarked) [isoprenaline], in data set [1] (0.1 μM), the cFPD reduction is 20%. Also, the “cFPD (normalized)” value in data set [1] (0.1 μM isoprenaline, baseline 100±0.0%, n=3) was 81.2±2.4% and 79.6±3.4%. The “effect on beating frequencies (in words)” value in the data set on hiPSC-CMs [2] (clusters treated with the beta-adrenergic agonist) is “significant increase in beating frequencies”. Also, in data set [3] (setting [6]), the “HF (normalized unit)” value worked out at 38.864±16.674%, the “LF (normalized unit)” value was 61.136±16.674%, the LF/HF ratio is given as 1.897±1.052 and the “Total Power (TP) of beat rate variability” value is 0.464±0.047 ms^2. In data set [3] (setting [6]), the “high frequency power (HF)” value is recorded as 0.064±0.095 ms^2, the “low frequency power (LF)” value stood at 0.058±0.043 ms^2 and the “very low frequency power (VLF)” value is 0.341±0.167 ms^2. Moreover, in data set [3] (setting [7]), the “HF (normalized unit)” value came to 25.494±2.381%, the “LF (normalized unit)” value is on record as 74.505±2.380%, the LF/HF ratio was determined as 2.949±0.326 and the “Total Power (TP) of beat rate variability” value was found to be 0.645±0.001 ms^2. Moreover, in data set [3] (setting [7]), the “high frequency power (HF)” value is listed as 0.017±0.002 ms^2, the “low frequency power (LF)” value amounted to 0.050±0.001 ms^2 and the “very low frequency power (VLF)” value is 0.578±0.002 ms^2.

As for `COc1ccc(CCN(C)CCCC(C#N)(c2ccc(OC)c(OC)c2)C(C)C)cc1OC` (centres unmarked) [verapamil, Verapamil], in the data set on hiPSC-CMs [2], the “effect on beating frequencies (in words)” value is recorded as “significantly reduced beating frequencies”. Moreover, in the data set on hiPSC-CMs [2] (5 μM), the “effect of prolonged exposure (in words)” value is recorded as “beating arrest”.

Consider `CCN(CC)CC(=O)Nc1c(C)cccc1C` [lidocaine, Lidocaine], for which, in data set [1], the “changes in cFPD (in words)” value is “did not demonstrate any significant changes”. Moreover, the “effect on FPmin, dose-dependent treatment (in words)” value in data set [1] (maximal effects at 10 μM dosage) is on record as “FPmin shortening”. The “reduction of conduction velocity” value with hiPSC-CMs [4] (setting [8]) is given as 40%.

As for `O=C(NCC1CCCCN1)c1cc(OCC(F)(F)F)ccc1OCC(F)(F)F` (centres unmarked) [flecainide, Flecainide], in data set [1] (1 μM), the “increase in cFPDs” value worked out at 1.7 fold. The molecule further displayed a cFPD in data set [1] (1 μM, C2 derived CMs, baseline 0.32±0.04 s, n=3) of 0.55 ± 0.06 s. Besides, in data set [1], the “change in FPmin (in words)” value is recorded as “did not show any significant change”. Also, the “increase in beating frequencies” value in the data set with hiPSC-CMs [2] (10 μM) came out at 2 fold. Also, the “reduction of conduction velocity” value in the data set with hiPSC-CMs [4] (1 μM) was determined as 45%. The “reduction of conduction velocity (in words)” value with hiPSC-CMs [4] (lowest dose, 0.01 μM) is “did not show any significant reduction”.

Take `C=C[C@H]1C[N@@]2CC[C@H]1C[C@@H]2[C@@H](O)c1ccnc2ccc(OC)cc12` [quinidine, Quinidine]: in data set [1] (10 μM, C2 cell line derived CMs), the FPmin shortening turned out to be 55%. In addition, in data set [1] (10 μM, C2 cell line derived CMs, baseline 100, n=3), the “FPmin (normalized)” value came out at 45±3.5%. Moreover, the cFPD in data set [1] (10 μM, C2 line derived CMs, baseline 0.31±0.03 s, n=3) is 0.50 ± 0.05 s. In data set [1] (10 μM, C3 cell line derived CMs), the “maximum FPmin shortening” value was found to be 37%. Also, the cFPD prolongation in data set [1] (10 μM, CMs derived from C2 line) is reported as 62%; in data set [1] (10 μM, hiPSC-CMs (FIG. 1A, C)), 55%. In addition, the “increase in beating frequencies” value in the data set on hiPSC-CMs [2] (100 μM) is 3 fold. Also, the “beating frequency (BF)” value with hiPSC-CMs [2] (100 μM, baseline 0.66±0.06 Hz, n=3) is recorded as 1.84±0.08 Hz. Besides, the “reduction of conduction velocity” value with hiPSC-CMs [4] (setting [8]) is on record as 20-25%.

As for `CCCCc1oc2ccccc2c1C(=O)c1cc(I)c(OCCN(CC)CC)c(I)c1` [amiodarone, Amiodarone], the cFPD prolongation in data set [1] (1 μM) is listed as 37%. Besides, the cFPD in data set [1] (1 μM, C2 derived CM, baseline 0.26±0.009 s, n=3) came out at 0.36 ± 0.01 s. The molecule also showed an FPmin shortening in data set [1] (1 μM, C2 derived CMs) of 25%. Besides, the “FPmin (normalized values)” value in data set [1] (1 μM, C2 derived CMs, n=3) is given as 73.6±3.8; in data set [1] (1 μM, C3 derived CMs, n=3, ns), 90±2.7. Besides, in data set [1] (1 μM, C3 derived CMs, ns), the FPmin reduction turned out to be 10%. Further, the “effect on beating frequencies (in words)” value in the data set with hiPSC-CMs [2] (higher doses, 10-100 μM) is reported as “increased beating frequencies”.

Take `CC(C)NCC(O)c1ccc(NS(C)(=O)=O)cc1` (centres unmarked) [sotalol, Sotalol]: the cFPD prolongation in data set [1] (50 μM) came out at 65%. Moreover, in data set [1], the “change in FPmin (in words)” value is “did not show any significant change” and the “cFPD effect relative to human ETPC unbound range (in words)” value is recorded as “maximally observed within the human ETPC range”. Besides, the “increase in beating frequencies” value in the data set with hiPSC-CMs [2] (500 μM) is reported as 1.8 fold. Further, in data set [5], the ETPC unbound range is 1.8 to 14 µM.

Consider `CC(C)(C)NCC(O)COc1cccc2c1CC(O)C(O)C2` (centres unmarked) [nadolol, Nadolol], for which the “cFPD (normalized) after reversal of isoprenaline-reduced cFPD” value in data set [1] (n=3) was 92.3±1.5%. Moreover, in data set [1], the “change in FPmin (in words)” value is reported as “did not have any significant effects”, the “changes in cFPD (in words)” value was “did not have any significant effects” and the “cFPD effect relative to human ETPC unbound range (in words)” value was “no significant cFPD prolongation within the ETPC unbound range”. For the same molecule, in the data set on hiPSC-CMs [2], the “modulation of beating rates (in words)” value is listed as “not apparent” and the “effect on isoprenaline-induced increase in beating frequencies (in words)” value was “reversed”. Besides, the ETPC unbound range in data set [5] is 0.18 to 0.80 µM.
